A short description of data set [1]: Aqueous solubility at various pH values (pH-solubility fit). To be noted: for aqueous solubility: A=active free base. As to the method:
Solubility of Compound A in aqueous media was measured at various pH values. The conjugate acid ionization constant and intrinsic solubility of the free base were derived by fitting the measured pH-solubility data to the slope-intercept form of the Henderson-Hasselbalch equation for monobasic molecules.

For data set [2] the following is noted: slurry, ambient temperature. As to the method:
(§1) Compound C was slurried in various solvents (Table 1) for 2 weeks at ambient temperature (21° C.±1° C.). […] Solubility was determined after 1 day of equilibration and slurries were allowed to stir for 2 weeks. The temperature was monitored and determined to be 21° C.±1° C. for the duration of the study. At the end of 2 weeks, the slurries were removed from stirring and solids were isolated by centrifuge filtration using 0.45-μm nylon filters, allowed to air-dry overnight, and then analyzed by PXRD. Selected samples were also analyzed by TGA and DSC.
X-ray diffraction analysis was performed using a PANalytical. X′Pert PRO MPD powder X-ray diffractometer (EQ0233). Samples were prepared by placing several milligrams of compound onto a sample holder and smoothing flat.

The conditions of data set [3]: for Solubility (mM) / Solubility (mg/mL): 21° C.±1° C. How it is done:
as §1
Solubility was determined by gravimetric analysis after ˜24 hours of equilibration at ambient temperature (21° C.±1° C.). Samples were separated by centrifuge filtration using an Eppendorf 5417C model centrifuge. Suspension samples were placed into centrifuge filter tubes with 0.45-μm nylon membrane filter and spun at 10000 rpm for 1 minute. Filtrate aliquots of 10 to 20 μL were placed into separate thermogravimetric analyzer pans, previously tared on a TA Instruments Q5000. The filtrates were dried to achieve dry residual solid weights. Solubility was calculated by dividing the dry residual weight by the aliquot volume.

Data set [4] in a line: Dynamic moisture sorption (DMS). It counts as physicochemical. As to the method:
Dynamic Moisture Sorption analysis was performed using a TA Instruments Q5000 SA (EQ2418). The sample was prepared for DMS analysis by placing ˜5 mg of compound into a tared sample holder.

[5] abbreviates: dimethyl sulfoxide (remained a solution), ~24 hours.
Where [6] appears, read: methyl t-butyl ether, ~24 hours equilibration.
Where [7] appears, read: water/acetone (1:20), ~24 hours.
Setting [8] is: water/acetonitrile (1:20), ~24 hours.
The mark [9] stands for this setting: water/isopropyl alcohol (1:20), ~24 hours.

Three compounds from patent US20240409548A1, “MODULATORS OF THE BETA-3 ADRENERGIC RECEPTOR USEFUL FOR THE TREATMENT OR PREVENTION OF DISORDERS RELATED THERETO” (Arena Pharmaceuticals, Inc., priority 2021, published 2024) can be followed below.

In brackets after ≈: the same amount, converted by molar mass. Where two headings read alike, the source gives them in different places.

As for `CCn1cc(S(=O)(=O)N2CCC3(CC2)C[C@@H](NC[C@H](O)COc2cccc(S(C)(=O)=O)c2)CO3)c(=O)c2ccccc21` [Compound D, 1-ethyl-3-((R)-3-((S)-2-hydroxy-3-(3-(methylsulfonyl)phenoxy)propylamino)-1-oxa-8-azaspiro[4.5]decan-8-ylsulfonyl)quinolin-4(1H)-one], the pKa in data set [1] was 7.44. The compound further came in with a solubility in data set [1] (aqueous buffer) of 530 µg/mL (≈ 855 µM).

For the compound `CCn1cc(S(=O)(=O)N2CCC3(CC2)C[C@@H](NC[C@H](O)COc2cccc(S(C)(=O)=O)c2)CO3)c(=O)c2ccccc21.CCn1cc(S(=O)(=O)N2CCC3(CC2)C[C@@H](NC[C@H](O)COc2cccc(S(C)(=O)=O)c2)CO3)c(=O)c2ccccc21.CS(=O)(=O)O.CS(=O)(=O)O.O` [Compound B, 1-ethyl-3-((R)-3-((S)-2-hydroxy-3-(3-(methylsulfonyl)phenoxy)propylamino)-1-oxa-8-azaspiro[4.5]decan-8-ylsulfonyl)quinolin-4(1H)-one mesylate hemihydrate Form 1], the “crystal form stability / conversion” value in data set [2] (listed as Form 1) was “converts to Form 2 in water”.

With `CCn1cc(S(=O)(=O)N2CCC3(CC2)C[C@@H](NC[C@H](O)COc2cccc(S(C)(=O)=O)c2)CO3)c(=O)c2ccccc21.CCn1cc(S(=O)(=O)N2CCC3(CC2)C[C@@H](NC[C@H](O)COc2cccc(S(C)(=O)=O)c2)CO3)c(=O)c2ccccc21.CS(=O)(=O)O.CS(=O)(=O)O.O` [Compound A, 1-ethyl-3-((R)-3-((S)-2-hydroxy-3-(3-(methylsulfonyl)phenoxy)propylamino)-1-oxa-8-azaspiro[4.5]decan-8-ylsulfonyl)quinolin-4(1H)-one mesylate hemihydrate Form 2], the “Solubility (mM)” value is on record as 0.61 mM in data set [3] (Acetone, ~24 hours); 2.31 mM in data set [3] (Acetonitrile, ~24 hours); 0.39 mM in data set [3] (Tetrahydrofuran, ~24 hours); 52.6 mM in data set [3] (Water, ~24 hours); over 610 mM in data set [3] (setting [5]); 0.88 mM in data set [3] (ethyl acetate, ~24 hours). In addition, the “Solubility (mM)” value in data set [3] (ethyl alcohol, ~24 hours) worked out at 1.03 mM; in data set [3] (isopropyl alcohol, ~24 hours), 1.01 mM; in data set [3] (methyl alcohol, ~24 hours), 21.6 mM; in data set [3] (methyl ethyl ketone, ~24 hours), 0.99 mM; in data set [3] (setting [6]), 0.76 mM; in data set [3] (setting [7]), 47.3 mM. Further, the “Solubility (mM)” value in data set [3] (setting [8]) came to 97.0 mM; in data set [3] (setting [9]), 29.4 mM. Besides, the “Solubility (mg/mL)” value was 0.44 mg/mL in data set [3] (Acetone, ~24 hours); 1.66 mg/mL in data set [3] (Acetonitrile, ~24 hours); 0.28 mg/mL in data set [3] (Tetrahydrofuran, ~24 hours); 30.5 mg/mL in data set [3] (Water, ~24 hours); over 437 mg/mL in data set [3] (setting [5]); 0.63 mg/mL in data set [3] (ethyl acetate, ~24 hours). Further, the “Solubility (mg/mL)” value in data set [3] (ethyl alcohol, ~24 hours) is 0.73 mg/mL; in data set [3] (isopropyl alcohol, ~24 hours), 0.72 mg/mL; in data set [3] (methyl alcohol, ~24 hours) it was 15.5 mg/mL; in data set [3] (methyl ethyl ketone, ~24 hours), 0.71 mg/mL; in data set [3] (setting [6]) it was 0.54 mg/mL; in data set [3] (setting [7]), 33.9 mg/mL. The “Solubility (mg/mL)” value in data set [3] (setting [8]) was 69.5 mg/mL; in data set [3] (setting [9]), 21.2 mg/mL. Further, the solubility in data set [3] (in methanol, dimethyl sulfoxide, and aqueous systems (high solubility)) is over 20000 µM; in data set [3] (in most organic solvents (low solubility)) it was at most 1000 µM. The aqueous solubility result is on record as “about 28 mgA/mL” in data set [1] and 28 mgA/mL in data set [1] (listed as mesylate salt). The pHmax in data set [1] (associated with the mesylate salt) was found to be 5.7. Moreover, the hygroscopicity result in data set [4] (DMS scan 0 to 90% RH, 25° C.) was “non-hygroscopic”. The “weight change between 30% RH and 90% RH (DMS)” value in data set [4] (at 2500, after essentially fully rehydrating) was about 0.1%. In data set [4] (condition 4000 and ~1% RH until steady weight in ~1 hour), the “total weight change of water during the drying step (DMS)” value is recorded as “about 0.35%”. Besides, in data set [2] (listed as Form 2), the “crystal form stability / conversion” value is reported as “does not convert to any other form at ambient temperature”.

The term pKa denotes the pH at which an ionisable group is half protonated. As a reminder, the solubility is the concentration that dissolves in the medium under given conditions.
